Assay results published in article PMC12362585, “Development and Preclinical Characterization of [^18F]H3-2406 and [^18F]H3-2407 for Positron Emission Tomography Imaging of the Histamine Subtype‑3 Receptor” (Journal of Medicinal Chemistry, 2025).
pKi: −log10 of the molar value.

Legend:
[1] = In vitro stability in serum, humans; format: in vitro ADME; conditions: human serum, 37 °C, 30, 60 and 90 min
Procedure: (§1) To assess the stability of [^18F]3, in vitro radioactivity analyses were conducted following 30-, 60- and 90 min coincubation of the radioligand in the serum and liver microsomes from mice, nonhuman primates (NHPs), and humans (Figure ).
(§2) Serum from mice, NHPs, and humans were warmed to room temperature, 15 MBq of [^18F]3 was added to 0.4 mL of each species’ serum. The mixtures were incubated at 37 °C and 0.1 mL of mixture was transferred into 0.2 mL cold acetonitrile at 30, 60, and 90 min. The samples were vortexed for 15 s and then centrifuged at 10,000g for 5 min. The supernatant was analyzed using analytical HPLC (Agilent 1100 series HPLC system on Phenomenex Luna C-18 column (4.6 × 150 mm), mobile phase 30% CH3CN/0.1% TFA in water, flow:1 mL/min). For microsomes studies, a mixture of microsomes (0.5 mg/mL), [^18F]3 (15 MBq), 0.35 mL of PBS, 0.05 mL of NADPH regenerating system A, and 0.01 mL of NADPH regenerating system B were incubated at 37 °C. The subsequent steps followed the same procedure as described above.

[2] = In vitro stability in serum, mice; format: in vitro ADME; conditions: 37 °C, 30, 60 and 90 min
Procedure: as §1, §2

H3R [3] = target: T1, H3R (Homo sapiens, UniProt Q9Y5N1); experiment: H3R competitive radioligand binding assay using [^3H]AZ13582963; conditions: competitive binding vs [^3H]AZ13582963; read-out: H3R K i
T1 construct: Gifford Bioscience (contract laboratory that ran the assay)
T1 sequence (Q9Y5N1 whole entry, species assumed): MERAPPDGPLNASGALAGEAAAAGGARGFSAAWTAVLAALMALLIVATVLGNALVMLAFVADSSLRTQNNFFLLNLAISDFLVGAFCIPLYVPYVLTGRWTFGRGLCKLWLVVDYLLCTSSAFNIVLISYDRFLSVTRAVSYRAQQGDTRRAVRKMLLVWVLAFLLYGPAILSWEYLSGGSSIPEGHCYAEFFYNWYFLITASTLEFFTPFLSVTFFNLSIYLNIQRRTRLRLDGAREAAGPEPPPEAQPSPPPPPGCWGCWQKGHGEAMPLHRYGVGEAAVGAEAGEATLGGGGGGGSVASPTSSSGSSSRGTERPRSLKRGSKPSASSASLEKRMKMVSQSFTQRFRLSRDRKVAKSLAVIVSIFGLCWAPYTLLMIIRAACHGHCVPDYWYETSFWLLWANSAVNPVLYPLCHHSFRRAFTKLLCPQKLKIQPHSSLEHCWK

H3R [4] = target: T2, H3R (Mus musculus, UniProt P58406); experiment: Dynamic PET imaging in CD1 mice, baseline and H3R antagonist blocking; format: in vivo; conditions: for V T, cerebellum / V T, cortex / V T, hippocampus / V T, striatum / V T, thalamus / V T, whole brain: Logan analysis, IDIF
T2 construct: dynamic PET imaging studies were conducted in CD1 mice; from tissue; host or cells: brain of living CD1 mice
T2 sequence (P58406 whole entry): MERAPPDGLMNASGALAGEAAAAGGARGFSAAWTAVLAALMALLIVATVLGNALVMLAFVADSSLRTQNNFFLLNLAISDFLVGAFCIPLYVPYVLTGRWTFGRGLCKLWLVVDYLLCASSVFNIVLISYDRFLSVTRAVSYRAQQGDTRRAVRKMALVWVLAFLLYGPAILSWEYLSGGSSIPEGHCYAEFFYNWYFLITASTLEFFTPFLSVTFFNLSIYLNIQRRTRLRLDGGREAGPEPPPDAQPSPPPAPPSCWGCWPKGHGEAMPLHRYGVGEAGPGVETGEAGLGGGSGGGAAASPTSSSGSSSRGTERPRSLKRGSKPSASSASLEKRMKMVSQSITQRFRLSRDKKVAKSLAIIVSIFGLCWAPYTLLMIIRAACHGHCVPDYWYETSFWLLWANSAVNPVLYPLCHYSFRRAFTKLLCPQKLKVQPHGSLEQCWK
Procedure: To elucidate the in vivo brain uptake of [^18F]3 and [^18F]4, dynamic PET imaging studies were conducted in CD1 mice (an outbred strain of immunocompetent mice commonly used for pharmacokinetic and biodistribution studies) for 60 min. The results, which include summed PET images (0–60 min), whole-brain time-activity curves (TACs), and area under the curve (AUC) for both radioligands, are depicted in Figures and . At baseline, [^18F]3 rapidly crossed the BBB following intravenous injection, reaching peak whole-brain uptake with a standardized uptake value (SUV) value of 2.4 at 2.3 min. This was followed by a gradual washout and reached a SUV of 1.87 by 60 min. To evaluate the binding characteristics of [^18F]3, elective H3R antagonists with distinct structural scaffolds, GSK189254, enerisant, and cipralisant, were used as blocking agents. […] Quantification of specific tracer binding was performed using volume of distribution (V T) values, derived from compartmental modeling and an image-derived input function (IDIF). […] While these findings support the utility of [^18F]3 for in vivo studies, we acknowledge the inherent limitations of IDIF, including the lack of metabolite correction and potential inaccuracies in capturing early phase kinetics.
PET imaging was conducted following previously reported methods. CD1 mice (5–6 weeks) were anesthetized with 1.5% (v/v) isoflurane during the scan. A dose of 3.0 MBq of [^18F]3 or [^18F]4 was intravenously injected into the tail vein, and a dynamic scan was acquiring using a PET scanner (MOLECUBES, beta-cube) for 60 min. In the blocking studies, GSK189254 (3 mg/kg) in 0.1 mL of saline containing 5% ethanol and 5% Tween-80 was preinjected for 10 min prior to the injection of PET radioligands. The results were reconstructed and analyzed by PMOD 4.3 software.
Quantification of specific tracer binding was performed using volume of distribution (VT) values, derived from compartmental modeling and an image-derived input […]
significant reduction in H3R-rich brain regions such as the cortex and striatum under blocking conditions with GSK189254, enerisant, and cipralisant, confirming the specificity of [18F]3 binding (Table S1).
Table S1. Estimation of V T values by Logan analysis in mice with [ 18F]3 at baseline, GSK189254-blocking (3 mg/kg), enerisant-blocking (3 mg/kg), and cipralisant-blocking (3 mg/kg) conditions.
Group Baseline GSK189254 Enerisant Cipralisant blocking blocking blocking

sigma-1 receptor = sigma-1 receptor (Homo sapiens, UniProt Q99720); experiment: sigma 1 binding assay; conditions: ratio of sigma-1 K i to H3R K i
Chain of sigma-1 receptor (Q99720 whole entry, species assumed): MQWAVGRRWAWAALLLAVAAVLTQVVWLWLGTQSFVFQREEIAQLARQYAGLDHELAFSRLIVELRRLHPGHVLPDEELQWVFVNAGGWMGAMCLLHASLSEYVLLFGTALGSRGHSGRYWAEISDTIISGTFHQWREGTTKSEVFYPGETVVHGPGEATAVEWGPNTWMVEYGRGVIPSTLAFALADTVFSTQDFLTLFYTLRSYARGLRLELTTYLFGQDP

[5] = mice pretreated with GSK189254 (3 mg/kg)

parent compound remaining intact in serum [1]: over 95% | parent compound remaining intact in serum [2]: over 95% | pKi (H3R [3]): 8.54 | whole-brain signal reduction based on AUC, GSK189254 blocking (H3R [4]; GSK189254 3 mg/kg, 0–60 min): 32.5% | V T, cerebellum (H3R [4]; GSK189254 blocking 3 mg/kg): 3.85 ± 0.61 | V T, cortex (H3R [4]; GSK189254 blocking 3 mg/kg): 2.17 ± 0.08 | V T, hippocampus (H3R [4]; GSK189254 blocking 3 mg/kg): 3.77 ± 0.47 | V T, striatum (H3R [4]; GSK189254 blocking 3 mg/kg): 2.91 ± 0.05 | V T, thalamus (H3R [4]; GSK189254 blocking 3 mg/kg): 3.90 ± 0.90 | V T, whole brain (H3R [4]; GSK189254 blocking 3 mg/kg): 3.40 ± 0.44 | V T, cerebellum (H3R [4]; baseline): 5.59 ± 0.37 | V T, cortex (H3R [4]; baseline): 4.82 ± 0.09 | V T, hippocampus (H3R [4]; baseline): 5.80 ± 0.05 | V T, striatum (H3R [4]; baseline): 5.64 ± 0.02 | V T, thalamus (H3R [4]; baseline): 6.71 ± 0.05 | V T, whole brain (H3R [4]; baseline): 5.29 ± 0.52 | V T, cerebellum (H3R [4]; cipralisant blocking 3 mg/kg): 2.94 ± 0.33 | V T, cortex (H3R [4]; cipralisant blocking 3 mg/kg): 2.38 ± 0.34 | V T, hippocampus (H3R [4]; cipralisant blocking 3 mg/kg): 2.61 ± 0.32 | V T, striatum (H3R [4]; cipralisant blocking 3 mg/kg): 2.67 ± 0.33 | V T, thalamus (H3R [4]; cipralisant blocking 3 mg/kg): 2.78 ± 0.40 | V T, whole brain (H3R [4]; cipralisant blocking 3 mg/kg): 2.61 ± 0.30 | V T, cerebellum (H3R [4]; enerisant blocking 3 mg/kg): 3.73 ± 0.16 | V T, cortex (H3R [4]; enerisant blocking 3 mg/kg): 3.18 ± 0.12 | V T, hippocampus (H3R [4]; enerisant blocking 3 mg/kg): 3.84 ± 0.19 | V T, striatum (H3R [4]; enerisant blocking 3 mg/kg): 3.48 ± 0.27 | V T, thalamus (H3R [4]; enerisant blocking 3 mg/kg): 4.11 ± 0.26 | V T, whole brain (H3R [4]; enerisant blocking 3 mg/kg): 3.58 ± 0.18 | time of peak whole-brain uptake (H3R [4]; baseline, CD1 mice): 2.3 min | whole-brain uptake at 60 min (H3R [4]; baseline, CD1 mice): 1.87 SUV | peak whole-brain uptake (H3R [4]; baseline, intravenous injection, CD1 mice): 2.4 SUV | whole-brain AUC reduction, cipralisant blocking (H3R [4]; cipralisant 3 mg/kg, 0–60 min): 38.4% | whole-brain AUC reduction, enerisant blocking (H3R [4]; enerisant 3 mg/kg, 0–60 min): 35.6% | brain radioactivity at 60 min (H3R [4]; [5]): 1.27 SUV | peak brain radioactivity (H3R [4]; [5]): 1.98 SUV | time of peak brain radioactivity (H3R [4]; [5]): 1.9 min | selectivity of H3R over sigma-1 (sigma-1 receptor): 69 fold
SMILES: O=C([C@H]1C[C@@H]1c1ccc([18F])cc1)N1CCN(C2CCCC2)CC1 [[^18F]3]
